Measured values taken from US20140219925A1, “POLYMER PARTICLES OR NANO-VECTORS AND USE THEREOF AS A DRUG AND/OR DIAGNOSTIC AGENT” (INSERM (Institut National de la Sante et de la Recherche …, priority 2011, published 2014).
“And” between values parts separate entries of the source, which are not always exact repeats. Equal values may be shown once. Read-outs that look alike come from different tables or passages of the source. One block for each compound: values may come before it.

How the values were obtained:
HDAC = assay: BRET measurement of histone acetylation / HDAC inhibition in Met-5A cells; format: cell-based
Procedure: Cellular model: Met-5A cells (ATCC)
Seed 200000 cells per well of a 6-well plate in 2 ml of RPMI 10% FCS penicillin/streptomycin and glutamine.
D1: Transfection: phRluc-C1 BrD+pEYFP-C1 histone H3
600 ng of phRluc-C1 BrD+1500 ng of pEYFP-C1 histone H3 in 100 μl of crude RPMI.
After 6 h at 37° C., begin the treatments by adding 20 μl of treatment medium (RPMI 10% FCS penicillin, streptomycin and L-glutamine) comprising the test compounds at a ten-fold concentration.
Add 5 μl per well of coelenterazine h (Interchim) at 25 μM.
Parameters: Reading at 485 nm for 1 second and then reading at 530 nm for 1 second.
((value 530 nm phRluc-C1 BrD+pEYFP-C1 histone H3/value 480 nm phRluc-C1 BrD+pEYFP-C1 histone H3)-(value 530 nm phRluc-C1 BrD/value 480 nm phRluc-C1 BrD))×1000
Unit: milli BRET unit (mBu)
These experiments make it possible to evaluate the release of the HDAC inhibitors (HDI) in the live cells.

[1] = Hydrolysis in buffer solutions, release monitored by HPLC; format: physicochemical; conditions: for half-life at 1 mg/ml: 1 mg/ml in acetonitrile 80% / buffer solution 20%
Procedure: The compound is put into an acid medium (citrate buffer for pH 4.3 and […] buffer for pH 7.3) and release of CI-994 is monitored by HPLC. The hydrolysis of the compounds of the invention was carried out in buffer solutions (citrate buffer for pH 4.3 and […] for pH 7.3) at pH=4.3 and at pH=7.3. The concentration of the samples is 1 mg/ml in the solution: acetonitrile at 80% and buffer solution at 20%. […] In some cases the measurements were prolonged for 2 or 3 weeks, or even a month.

EC50 (HDAC; read-out: EC50 (BRET), average value±standard deviation of three independent experiments): 0.86 ± 1.14 µM
Compound: CC(=O)Nc1ccc(C(=O)Nc2ccccc2N)cc1 [CI-994, reference compound]

EC50 (HDAC; average value±standard deviation of three independent experiments, read-out: EC50 (BRET)): 7.17 µM and 6.2 µM | half-life at 1 mg/ml ([1]; pH 4.3 citrate buffer, read-out: t1/2 pH 4.3): 0.5 h | half-life at 1 mg/ml ([1]; pH 7.3 Trisma buffer, read-out: t1/2 pH 7.3 (converted)): 86.4 h
Compound: C#CCOCCOCCOCCOCCn1cc(C(Nc2ccccc2NC(=O)c2ccc(NC(C)=O)cc2)(c2ccccc2)c2ccccc2)nn1 [Compound 9c, N-(2-((1-(3,6,9,12-tetraoxapentadec-14-ynyl)-1H-1,2,3-triazol-4-yl)diphenylmethylamino)phenyl)-4-acetamidobenzamide]

time without hydrolysis ([1]; pH 7.3): at least 1 month
Compound: N^1-((1-(3,6,9,12-tetraoxapentadec-14-ynyl)-1H-1,2,3-triazol-4-yl)bis(4-fluorophenyl)methoxy)phenyl [Compound 21g]
